Tests used:
[1] = test system: Pseudocercoporella herpotrichoides; assay: Test 1 for antifungal effect, plate medium: P.h; assay type: cell-based; details: PDA plate medium
Procedure: (§1) Compound (1-1a) or Compound (1-2a) was dissolved in dimethyl sulfoxide, and the resulting solution was added to a PDA medium (potato dextrose-agar medium) at about 60° C. The medium and the solution were mixed thoroughly in a conical flask, poured into a petri dish, and allowed to solidify. In this way, a plate medium containing Compound (1-1a) or Compound (1-2a) at a certain concentration was prepared.
(§2) Meanwhile, test microorganisms cultured on a plate medium in advance were cut out with the use of a cork borer 4 mm in diameter, and were inoculated onto the compound-containing plate medium. After the inoculation, the microorganisms were cultured at their optimum growth temperatures (for example, refer to LIST OF CULTURES 1996 microorganisms 10th edition, Institute for Fermentation (foundation)) for 1 day to 7 days, and their growth was determined by measuring the diameter of their flora. The extent of growth of the microorganisms on the compound-containing plate medium was compared with that of microorganisms on a plate medium where no compound was added, and mycelial growth inhibition rate was calculated by the following equation: R=100(dc−dt)/dc where R is mycelial growth inhibition rate (%), dc is the flora diameter in untreated plate, and dt is the flora diameter in plate treated with the compound.
(§3) A larger antifungal index indicates a better antifungal effect.

[2] = test system: Cercospora beticola; assay: Test 1 for antifungal effect, plate medium: C.b; assay type: cell-based; details: PDA plate medium
Procedure: as §1, §2, §3

[3] = test system: rice Bakanae disease; assay: Efficacy of seed treatment on rice Bakanae disease; assay type: in vivo, Gibberella fujikuroi; details: rice seed treatment 80 g ai/100 kg seeds, 20 days after sowing
Procedure: A pot experiment was performed to evaluate the effectiveness of the seed treatment in controlling rice Bakanae disease. Compound (1-1a), which was dissolved in DMSO to make up such a concentration that the seeds would be treated in treatment amount of 80 g ai/100 kg seeds, was applied in a vial to seeds of a rice plant infected with rice Bakanae disease, and thereafter 16 rice plant seeds were sowed in a 50-cm^2 pot. The pot was kept in a greenhouse with water supplied to its bottom. 20 days after the sowing, examination was conducted on the percentage of seedlings infected with […]. Then, protective values were calculated as were in Experiment Example 4.

[4] = test system: Erysiphe graminis f. sp tritici; assay: Controlling effect on wheat powdery mildew by foliage spray treatment (Tests 1 and 2); assay type: in vivo; details: foliage spray 12.5 mg/L, 1,000 L/ha
Description: The suspension was sprayed at 1,000 L/ha to leaves of wheat plants (cultivar: NORIN No. 61) in their second leaf stage. The wheat plants had been grown in square plastic pots (6 cm×6 cm). After the suspension was left to dry, the plants were inoculated with Erysiphe graminis f. sp tritici taken from wheat plants infected with wheat powdery mildew, by sprinkling. 8 days and 11 days after the inoculation, the lesion degree of the wheat powdery mildew was examined in accordance with the criteria shown in Table 4. The protective values were found in the same way as in Experiment Example 2.
The suspension was sprayed at 1,000 L/ha to leaves of wheat plants (cultivar: NORIN No. 61) in their second leaf stage. The wheat plants had been grown in square plastic pots (6 cm×6 cm). After the leaves were air-dried, they were inoculated with Erysiphe graminis f. sp tritici taken from wheat plants infected with wheat powdery mildew, by sprinkling. 8 days after the inoculation, the lesion degree of the wheat powdery mildew was examined. The protective values were calculated as were in Experiment Example 1.

[5] = test system: rice plant; assay: Growth inhibition (adverse effects) of seed treatment on rice plant seeds; assay type: in vivo; details: treatment amount 80 g ai/100 kg seeds, 20 days after sowing
Procedure: A pot experiment was performed to evaluate the growth inhibition (adverse effects) caused by the seed treatment. Compound (1-1a) and Compound (1-2a), each of which was dissolved in DMSO to make up such a concentration that the seeds would be treated in treatment amount of 2 g to 200 g ai/100 kg seeds, were each applied to wheat seeds in a vial, and thereafter 8 wheat seeds were sowed in an 80-cm^2 pot. The pot was kept in a greenhouse with water supplied to its bottom. 20 days after the sowing, a growth measure of wheat was evaluated. A growth inhibition index was calculated based on the criteria shown by Table 10. In Table 10, a smaller growth inhibition index indicates a lesser adverse effect of growth inhibition caused by the treatment with the use of a plant disease controlling agent.
A pot experiment was performed to evaluate the growth inhibition (adverse effects) caused by the seed treatment. Compound (1-1a), which was dissolved in DMSO to make up such a concentration that the seeds would be treated in treatment amount of 80 g ai/100 kg seeds, was applied to rice plant seeds in a vial, and thereafter 16 rice plant seeds were sowed in a 50-cm^2 pot. The pot was kept in a greenhouse with water supplied to its bottom. 20 days after the sowing, a growth measure of rice plant was evaluated. A growth inhibition index was calculated as was in Experiment Example 5.

[6] = test system: rice plant; assay: Necrosis (adverse effects) of seed treatment on rice plant seeds; assay type: in vivo; details: treatment amount 80 g ai/100 kg seeds, 20 days after sowing
Procedure: A pot experiment was performed to evaluate necrosis (adverse effects) caused by the seed treatment. Compound (1-1a) and Compound (1-2a), each which was dissolved in DMSO to make up such a concentration that the seeds would be treated in treatment amount of 2 g to 200 g ai/100 kg seeds, were each applied to wheat seeds in a vial, and thereafter 8 wheat seeds were sowed in an 80-cm^2 pot. The pot was kept in a greenhouse with water supplied to its bottom. 20 days after the sowing, an extent of necrosis (percentage of necrotic surface area) of wheat was evaluated. A necrosis index was derived from the percentage of the necrotic surface area, based on the criteria shown by Table 13. In Table 13, a smaller necrosis index indicates a lesser adverse effect of necrosis caused by the treatment with the use of a plant disease controlling agent.
A pot experiment was performed to evaluate necrosis (adverse effects) caused by the seed treatment. Compound (1-1a), which was dissolved in DMSO to make up such a concentration that the seeds would be treated in treatment amount of 80 g ai/100 kg seeds, was applied to rice plant seeds in a vial, and thereafter 16 rice plant seeds were sowed in a 50-cm^2 pot. […] 20 days after the sowing, an extent of necrosis (percentage of necrotic surface area) of rice plant was evaluated. A necrosis index was calculated as was in Experiment Example 6.

| Structure (SMILES) | Antifungal index (mycelial growth inhibition rate) ([1]; 0.16 mg/L) | Antifungal index (mycelial growth inhibition rate) ([1]; 0.31 mg/L) | Antifungal index (mycelial growth inhibition rate) ([1]; 0.63 mg/L) | Antifungal index (mycelial growth inhibition rate) ([1]; 1.25 mg/L) | Antifungal index (mycelial growth inhibition rate) ([1]; 2.50 mg/L) | Antifungal index (mycelial growth inhibition rate) ([2]; 0.16 mg/L) | Antifungal index (mycelial growth inhibition rate) ([2]; 0.31 mg/L) | Antifungal index (mycelial growth inhibition rate) ([2]; 0.63 mg/L) | Antifungal index (mycelial growth inhibition rate) ([2]; 1.25 mg/L) | Antifungal index (mycelial growth inhibition rate) ([2]; 2.50 mg/L) | Protective value (%) [3] | Protective value (%) (8 days after treatment) [4] | Protective value (%) (11 days after treatment) [4] | Growth inhibition index [5] | Necrosis index [6] |
| --- | --- | --- | --- | --- | --- | --- | --- | --- | --- | --- | --- | --- | --- | --- | --- |
| CC1(CCl)CCC(Cc2ccc(Cl)cc2)C1(O)Cn1cncn1 (single isomer, unassigned) [Compound (1-1a), (1,2-cis, 1,5-cis)-5-(4-chlorobenzyl)-2-chloromethyl-2-methyl-1-(1H-1,2,4-triazole-1-ylmethyl)cyclopentanol] | 1 (Less than 60%) | 5 (90% or greater) | 5 (90% or greater) | 5 (90% or greater) | 5 (90% or greater) | 4 (Less than 90% but not less than 80%) | 5 (90% or greater) | 5 (90% or greater) | 5 (90% or greater) | 5 (90% or greater) | 100% | 96% | 84% | 0 (50% or more) | 0 (Less than 1%) |
| CC1(CCl)CCC(Cc2ccc(Cl)cc2)C1(O)Cn1cncn1 (single isomer, unassigned) [Compound (1-1b), (1,2-cis, 1,5-cis)-5-(4-chlorobenzyl)-2-chloromethyl-2-methyl-1-(1H-1,2,4-triazole-1-ylmethyl)cyclopentanol] | 1 (Less than 60%) | 1 (Less than 60%) | 2 (Less than 70% but not less than 60%) | 3 (Less than 80% but not less than 70%) | 4 (Less than 90% but not less than 80%) | 3 (Less than 80% but not less than 70%) | 4 (Less than 90% but not less than 80%) | 5 (90% or greater) | 5 (90% or greater) | 5 (90% or greater) | 66% | 71% | 58% | 4 (Less than 20% but 10% or more) | 2 (Less than 20% but not less than 5%) |

Source: patent US9253983B2, “Triazole compound and use thereof” (KUREHA CORPORATION, priority 2011, dated 2016)
